Measured values taken from patent US11986532B2 (Arvinas Operations, Inc., priority 2021, dated 2024).
Like-named read-outs stand apart in the source and are kept apart here.

Biological target: T1, BCL6 (Homo sapiens, UniProt P41182)
T1 construct: endogenous in cells; host or cells: T47D breast cancer epithelial cells
Assay: Immunofluorescence protocol for high content imaging of BCL6 (degradation) in T47D cells, 3 days compound treatment
Type: cell-based
Details: for DC50: read-out: Mean DC50 (nM)* category; for Dmax: read-out: Mean Dmax (%)** category
How it was run: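 Remaining BCL6 in breast cancer T47D cells was measured by high-content immunofluorescence imaging after 3 days of treatment with serially diluted compound (top 0.1 or 1 μM). Nuclei were stained with Hoechst and cells with CellMask.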

[1] = T47D cells, 3 days compound treatment

| Structure (SMILES) | DC50 [1] [nM] | Dmax [1] [%] | Dmax (T47D) [%] | DC50 [nM] |
| --- | --- | --- | --- | --- |
| CNC(=O)COc1cc2cc(Nc3nc(N4CCC(O[C@H]5C[C@H](N6CCC(c7ccc8c(c7F)CN(C7CCC(=O)NC7=O)C8=O)C(C)(C)C6)C5)CC4)ncc3Cl)ccc2n(C(C)C)c1=O (some centres unmarked) [Compound 187, 2-({6-[(5-chloro-2-{4-[(1r,3r)-3-{4-[2-(2,6-dioxopiperidin-3-yl)-4-fluoro-1-oxo-3H-isoindol-5-yl]-3,3-dimethylpiperidin-1-yl}cyclobutoxy]piperidin-1-yl}pyrimidin-4-yl)amino]-1-isopropyl-2-oxoquinolin-3-yl}oxy)-N-methylacetamide] | < 10 | ≥ 70 | – | – |
| CNC(=O)COc1cc2cc(Nc3nc(N4CCC(O[C@H]5C[C@H](N6C7CCC6CN(c6ccc8c(c6F)CN(C6CCC(=O)NC6=O)C8=O)C7)C5)CC4)ncc3Cl)ccc2n(C(C)C)c1=O (some centres unmarked) [Compound 406, 2-({6-[(5-chloro-2-{4-[(1r,3r)-3-{3-[2-(2,6-dioxopiperidin-3-yl)-4-fluoro-1-oxo-2,3-dihydro-1H-isoindol-5-yl]-3,8-diazabicyclo [3.2.1]octan-8-yl}cyclobutoxy]piperidin-1-yl}pyrimidin-4-yl)amino]-2-oxo-1-(propan-2-yl)-1,2-dihydroquinolin-3-yl}oxy)-N-methylacetamide] | – | – | 50 to 70 | < 10 |
| CNC(=O)COc1cc2cc(Nc3nc(N4CCC(O[C@H]5C[C@H](N6CC7(CCN(c8ccc9c(c8)C(=O)N(C8CCC(=O)NC8=O)C9=O)C7)C6)C5)CC4)ncc3Cl)ccc2n(C(C)C)c1=O (some centres unmarked) [Compound 350, 2-({6-[(5-chloro-2-{4-[(1r,3r)-3-{6-[2-(2,6-dioxopiperidin-3-yl)-1,3-dioxo-2,3-dihydro-1H-isoindol-5-yl]-2,6-diazaspiro [3.4]octan-2-yl}cyclobutoxy]piperidin-1-yl}pyrimidin-4-yl)amino]-2-oxo-1-(propan-2-yl)-1,2-dihydroquinolin-3-yl}oxy)-N-methylacetamide] | – | – | ≥ 70 | < 10 |
| CNC(=O)COc1cc2cc(Nc3nc(N4CCC(OC5CCC6(CC5)CN(c5c(F)cc7c(c5F)CN(C5CCC(=O)NC5=O)C7=O)C6)CC4)ncc3Cl)ccc2n(C(C)C)c1=O (centres unmarked) [Compound 324, 2-{[6-({5-chloro-2-[4-({2-[2-(2,6-dioxopiperidin-3-yl)-4,6-difluoro-1-oxo-2,3-dihydro-1H-isoindol-5-yl]-2-azaspiro[3.5]nonan-7-yl}oxy)piperidin-1-yl]pyrimidin-4-yl}amino)-2-oxo-1-(propan-2-yl)-1,2-dihydroquinolin-3-yl]oxy}-N-methylacetamide] | – | – | 50 to 70 | < 10 |
| CNC(=O)COc1cc2c(F)c(Nc3nc(N4CCC(CN5CCC6(CC5)CC5(CN(c7ccc8c(c7)CN(C7CCC(=O)NC7=O)C8=O)C5)C6)CC4)ncc3Cl)ccc2n(C(C)C)c1=O (centres unmarked) [Compound 421, 2-{[6-({5-chloro-2-[4-({2-[2-(2,6-dioxopiperidin-3-yl)-1-oxo-2,3-dihydro-1H-isoindol-5-yl]-2,9-diazadispiro [3.1.56.14]dodecan-9-yl}methyl)piperidin-1-yl]pyrimidin-4-yl}amino)-5-fluoro-2-oxo-1-(propan-2-yl)-1,2-dihydroquinolin-3-yl]oxy}-N-methylacetamide] | – | – | ≥ 70 | < 10 |
| CNC(=O)COc1cc2cc(Nc3nc(N4CCC(O[C@H]5C[C@H](N6CC=C(c7ccc8c(c7)C(=O)N(C7CCC(=O)NC7=O)C8=O)CC6)C5)CC4)ncc3Cl)ccc2n(C(C)C)c1=O (some centres unmarked) [Compound 303, 2-({6-[(5-chloro-2-{4-[(1r,3r)-3-{4-[2-(2,6-dioxopiperidin-3-yl)-1,3-dioxo-2,3-dihydro-1H-isoindol-5-yl]-1,2,3,6-tetrahydropyridin-1-yl}cyclobutoxy]piperidin-1-yl}pyrimidin-4-yl)amino]-2-oxo-1-(propan-2-yl)-1,2-dihydroquinolin-3-yl}oxy)-N-methylacetamide] | – | – | 50 to 70 | 50 to 100 |
| CNC(=O)COc1cc2cc(Nc3nc(N4CCC(O[C@H]5C[C@H](N6CC[C@H](c7ccc8c(c7F)CN([C@H]7CCC(=O)NC7=O)C8=O)C(C)(C)C6)C5)CC4)ncc3Cl)ccc2n(C(C)C)c1=O [Compound 210, 2-({6-[(5-chloro-2-{4-[(1r,3r)-3-[(4S)-4-{2-[(3S)-2,6-dioxopiperidin-3-yl]-4-fluoro-1-oxo-2,3-dihydro-1H-isoindol-5-yl}-3,3-dimethylpiperidin-1-yl]cyclobutoxy]piperidin-1-yl}pyrimidin-4-yl)amino]-2-oxo-1-(propan-2-yl)-1,2-dihydroquinolin-3-yl}oxy)-N-methylacetamide] | < 10 | ≥ 70 | – | – |
| CNC(=O)COc1cc2cc(Nc3nc(N4CCC(O[C@H]5C[C@H](N6CCN(c7cc8c(cc7Cl)C(=O)N([C@H]7CCC(=O)NC7=O)C8)[C@H](C)C6)C5)CC4)ncc3Cl)ccc2n(C(C)C)c1=O [Compound 269, 2-({6-[(5-chloro-2-{4-[(1r,3r)-3-[(3R)-4-{6-chloro-2-[(3S)-2,6-dioxopiperidin-3-yl]-1-oxo-2,3-dihydro-1H-isoindol-5-yl}-3-methylpiperazin-1-yl]cyclobutoxy]piperidin-1-yl}pyrimidin-4-yl)amino]-2-oxo-1-(propan-2-yl)-1,2-dihydroquinolin-3-yl}oxy)-N-methylacetamide] | – | – | ≥ 70 | < 10 |
| CNC(=O)COc1cc2cc(Nc3nc(N4CCC(O[C@H]5C[C@H](N6CCC(c7cc8c(cc7OC(C)C)C(=O)N(C7CCC(=O)NC7=O)C8=O)CC6)C5)CC4)ncc3Cl)ccc2n(C(C)C)c1=O (some centres unmarked) [Compound 159, 2-[[6-[[5-chloro-2-[4-[3-[4-[2-(2,6-dioxo-3-piperidyl)-6-isopropoxy-1,3-dioxo-isoindolin-5-yl]-1-piperidyl]cyclobutoxy]-1-piperidyl]pyrimidin-4-yl]amino]-1-isopropyl-2-oxo-3-quinolyl]oxy]-N-methyl-acetamide] | < 10 | ≥ 70 | – | – |
| CNC(=O)COc1cc2cc(Nc3nc(N4CCC(O[C@H]5C[C@H](N6CCC(c7ccc8c(c7F)[C@@H](C)N([C@H]7CCC(=O)NC7=O)C8=O)CC6)C5)CC4)ncc3Cl)ccc2n(C(C)C)c1=O [Compound 288, 2-({6-[(5-chloro-2-{4-[(1r,3r)-3-{4-[(3R)-2-[(3S)-2,6-dioxopiperidin-3-yl]-4-fluoro-3-methyl-1-oxo-2,3-dihydro-1H-isoindol-5-yl]piperidin-1-yl}cyclobutoxy]piperidin-1-yl}pyrimidin-4-yl)amino]-2-oxo-1-(propan-2-yl)-1,2-dihydroquinolin-3-yl}oxy)-N-methylacetamide] | – | – | < 50 | 10 to 50 |
| CNC(=O)COc1cc2cc(Nc3nc(N4CCC(CN5CC(N6CCN(c7ccc8c(c7)CN(C7CCC(=O)NC7=O)C8=O)CC6)C5)CC4)ncc3Cl)ccc2n(C(C)C)c1=O (centres unmarked) [Compound 242, 2-({6-[(5-chloro-2-{4-[(3-{4-[2-(2,6-dioxopiperidin-3-yl)-1-oxo-2,3-dihydro-1H-isoindol-5-yl]piperazin-1-yl}azetidin-1-yl)methyl]piperidin-1-yl}pyrimidin-4-yl)amino]-2-oxo-1-(propan-2-yl)-1,2-dihydroquinolin-3-yl}oxy)-N-methylacetamide] | – | – | ≥ 70 | < 10 |

Continued, in another order:

| DC50 [1] [nM] | Dmax [1] [%] | Structure (SMILES) | Dmax (T47D) [%] | DC50 [nM] |
| --- | --- | --- | --- | --- |
| < 10 | < 50 | CNC(=O)COc1cc2cc(Nc3nc(N4CCN(CC5CCC6(CC5)CN(c5c(OC)ccc7c5C(=O)N(C5CCC(=O)NC5=O)C7=O)C6)CC4)ncc3Cl)ccc2n(C(C)C)c1=O (centres unmarked) [Compound 9, 2-{[6-({5-chloro-2-[4-({2-[2-(2,6-dioxopiperidin-3-yl)-5-methoxy-1,3-dioxo-2,3-dihydro-1H-isoindol-4-yl]-2-azaspiro[3.5]nonan-7-yl}methyl)piperazin-1-yl]pyrimidin-4-yl}amino)-2-oxo-1-(propan-2-yl)-1,2-dihydroquinolin-3-yl]oxy}-N-methylacetamide] | – | – |
| 50 to 100 | < 50 | CNC(=O)COc1cc2cc(Nc3nc(N4CC(C)OC(C)C4)ncc3Cl)ccc2n(CCOc2ccc3c(c2)C(=O)N(C2CCC(=O)NC2=O)C3=O)c1=O (centres unmarked) [Compound 33, 2-[(6-{[5-chloro-2-(2,6-dimethylmorpholin-4-yl)pyrimidin-4-yl]amino}-1-(2-{[2-(2,6-dioxopiperidin-3-yl)-1,3-dioxo-2,3-dihydro-1H-isoindol-5-yl]oxy}ethyl)-2-oxo-1,2-dihydroquinolin-3-yl)oxy]-N-methylacetamide] | – | – |
| ≥ 100 | ≥ 70 | CNC(=O)COc1cc2cc(Nc3nc(N4CCOC5(CN(CCC6CCN(c7cccc8c7C(=O)N(C7CCC(=O)NC7=O)C8=O)CC6)C5)C4)ncc3Cl)ccc2n(C(C)C)c1=O (centres unmarked) [Compound 144, 2-{[6-({5-chloro-2-[2-(2-{1-[2-(2,6-dioxopiperidin-3-yl)-1,3-dioxo-2,3-dihydro-1H-isoindol-4-yl]piperidin-4-yl}ethyl)-5-oxa-2,8-diazaspiro[3.5]nonan-8-yl]pyrimidin-4-yl}amino)-2-oxo-1-(propan-2-yl)-1,2-dihydroquinolin-3-yl]oxy}-N-methylacetamide] | – | – |
| < 10 | 50 to 70 | CNC(=O)COc1cc2cc(Nc3nc(N4CCC5(CC4)CN(C(=O)C4CCN(c6cccc7c6CN(C6CCC(=O)NC6=O)C7=O)CC4)C5)ncc3Cl)ccc2n(C(C)C)c1=O (centres unmarked) [Compound 22, 2-[(6-{[5-chloro-2-(2-{1-[2-(2,6-dioxopiperidin-3-yl)-1-oxo-2,3-dihydro-1H-isoindol-4-yl]piperidine-4-carbonyl}-2,7-diazaspiro[3.5]nonan-7-yl)pyrimidin-4-yl]amino}-2-oxo-1-(propan-2-yl)-1,2-dihydroquinolin-3-yl)oxy]-N-methylacetamide] | – | – |
| < 10 | < 50 | CNC(=O)COc1cc2cc(Nc3nc(N4CCN(C(C)(C)C5CCN(c6ccc7c(c6OC)CN(C6CCC(=O)NC6=O)C7=O)CC5)CC4)ncc3Cl)ccc2n(C(C)C)c1=O (centres unmarked) [Compound 78, 2-{[6-({5-chloro-2-[4-(2-{1-[2-(2,6-dioxopiperidin-3-yl)-4-methoxy-1-oxo-2,3-dihydro-1H-isoindol-5-yl]piperidin-4-yl}propan-2-yl)piperazin-1-yl]pyrimidin-4-yl}amino)-2-oxo-1-(propan-2-yl)-1,2-dihydroquinolin-3-yl]oxy}-N-methylacetamide] | – | – |
